According to ChEMBL document CHEMBL4834445, “Discovery of a new class of JMJD6 inhibitors and structure-activity relationship study” (Bioorg Med Chem Lett, 2021):
The source made the active and inactive calls. The calls are words filed in the database; no cut-off is given here.

Assays:
[1] = molecular target: T1, Bifunctional arginine demethylase and lysyl-hydroxylase JMJD6 (Homo sapiens, UniProt Q6NYC1); assay: Inhibition of JMJD6 (unknown origin) by Succinate-Glo assay
[2] = molecular target: T2, Lysine-specific demethylase 4D (Homo sapiens, UniProt Q6B0I6); assay: Inhibition of KDM4D (unknown origin) by Succinate-Glo assay
T2 sequence (Q6B0I6 whole entry): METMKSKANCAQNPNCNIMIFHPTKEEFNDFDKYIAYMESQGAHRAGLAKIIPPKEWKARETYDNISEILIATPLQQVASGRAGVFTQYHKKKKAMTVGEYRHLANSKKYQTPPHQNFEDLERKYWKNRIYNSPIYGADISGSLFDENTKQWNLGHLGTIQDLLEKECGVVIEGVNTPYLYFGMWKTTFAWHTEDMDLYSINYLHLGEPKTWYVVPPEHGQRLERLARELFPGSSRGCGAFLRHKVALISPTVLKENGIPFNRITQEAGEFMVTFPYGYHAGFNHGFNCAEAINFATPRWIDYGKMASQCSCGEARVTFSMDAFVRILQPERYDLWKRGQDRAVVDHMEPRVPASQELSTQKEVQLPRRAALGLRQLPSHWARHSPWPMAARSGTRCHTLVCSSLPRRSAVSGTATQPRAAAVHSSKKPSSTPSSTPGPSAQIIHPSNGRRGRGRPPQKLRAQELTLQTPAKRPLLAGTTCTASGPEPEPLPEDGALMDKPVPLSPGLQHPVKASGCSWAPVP

[3] = molecular target: T3, Lysine-specific demethylase 5A (Homo sapiens, UniProt P29375); assay: Inhibition of KDM5A (unknown origin) by AlphalLISA assay
RNA demethylase ALKBH5 [4] = molecular target: T4, RNA demethylase ALKBH5 (Homo sapiens, UniProt Q6P6C2); assay: Inhibition of ALKBH5 (unknown origin) by Succinate-Glo assay
Target sequence in this assay (Q6P6C2 whole entry): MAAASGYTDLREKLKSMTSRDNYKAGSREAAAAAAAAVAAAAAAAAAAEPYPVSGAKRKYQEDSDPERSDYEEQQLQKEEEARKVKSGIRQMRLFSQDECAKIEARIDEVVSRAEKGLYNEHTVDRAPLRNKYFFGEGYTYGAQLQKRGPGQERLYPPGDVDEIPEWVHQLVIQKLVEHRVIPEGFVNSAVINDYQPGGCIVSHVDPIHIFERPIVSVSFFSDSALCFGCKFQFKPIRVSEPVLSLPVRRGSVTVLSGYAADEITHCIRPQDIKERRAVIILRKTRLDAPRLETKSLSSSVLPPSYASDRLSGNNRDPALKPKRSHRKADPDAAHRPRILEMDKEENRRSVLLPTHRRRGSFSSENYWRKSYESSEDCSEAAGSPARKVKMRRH

[5] = molecular target: T1, Bifunctional arginine demethylase and lysyl-hydroxylase JMJD6; assay: Binding affinity to JMJD6 (unknown origin) assessed as thermal stability of the protein by measuring change in melting temperature by differential scanning fluorimetry
[6] = molecular target: T1, Bifunctional arginine demethylase and lysyl-hydroxylase JMJD6; assay: Binding affinity to JMJD6 in human HeLa cells assessed as inhibition of temperature-dependent protein degradation by CETSA; format: cell-based
[7] = molecular target: T5, Lysine-specific demethylase 3B (Homo sapiens, UniProt Q7LBC6); assay: Binding affinity to KDM3B (unknown origin) by differential scanning fluorimetry
[8] = molecular target: T6, Bifunctional peptidase and (3S)-lysyl hydroxylase JMJD7 (Homo sapiens, UniProt P0C870); assay: Binding affinity to JMJD7 (unknown origin) by differential scanning fluorimetry
[9] = molecular target: T3, Lysine-specific demethylase 5A; assay: Binding affinity to KDM5A (unknown origin) by differential scanning fluorimetry
[10] = molecular target: T6, Bifunctional peptidase and (3S)-lysyl hydroxylase JMJD7; assay: Inhibition of JMJD7 (unknown origin) by Succinate-Glo assay
RNA demethylase ALKBH5 [11] = molecular target: T4, RNA demethylase ALKBH5; assay: Binding affinity to ALKBH5 (unknown origin) by differential scanning fluorimetry
Target sequence in this assay (Q6P6C2 2-394 limits assumed): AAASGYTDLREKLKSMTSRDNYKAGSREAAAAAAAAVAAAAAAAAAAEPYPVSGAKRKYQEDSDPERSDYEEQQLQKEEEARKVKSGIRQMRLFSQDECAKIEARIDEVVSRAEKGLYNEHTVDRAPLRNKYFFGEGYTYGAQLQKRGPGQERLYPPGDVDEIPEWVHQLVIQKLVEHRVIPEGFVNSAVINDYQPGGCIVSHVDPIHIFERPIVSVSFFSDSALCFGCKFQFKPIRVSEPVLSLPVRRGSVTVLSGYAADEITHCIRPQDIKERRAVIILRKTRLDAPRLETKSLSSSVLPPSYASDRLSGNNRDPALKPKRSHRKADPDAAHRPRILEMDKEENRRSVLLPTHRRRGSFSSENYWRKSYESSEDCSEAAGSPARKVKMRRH

[12] = molecular target: T5, Lysine-specific demethylase 3B; assay: Inhibition of KDM3B (unknown origin) by Succinate-Glo assay
[13] = molecular target: T7, Lysine-specific demethylase 4D (Homo sapiens) (UniProt Q6B0I6); assay: Binding affinity to KDM4D (unknown origin) by differential scanning fluorimetry
T7 sequence (whole entry): T2 sequence (Q6B0I6 whole entry)

[14] = molecular target: T1, Bifunctional arginine demethylase and lysyl-hydroxylase JMJD6; assay: Inhibition of JMJD6 (unknown origin)
[15] = molecular target: T1, Bifunctional arginine demethylase and lysyl-hydroxylase JMJD6; assay: Inhibition of JMJD6 (unknown origin) at 100 uM by Succinate-Glo assay

T6 sequence (P0C870 whole entry): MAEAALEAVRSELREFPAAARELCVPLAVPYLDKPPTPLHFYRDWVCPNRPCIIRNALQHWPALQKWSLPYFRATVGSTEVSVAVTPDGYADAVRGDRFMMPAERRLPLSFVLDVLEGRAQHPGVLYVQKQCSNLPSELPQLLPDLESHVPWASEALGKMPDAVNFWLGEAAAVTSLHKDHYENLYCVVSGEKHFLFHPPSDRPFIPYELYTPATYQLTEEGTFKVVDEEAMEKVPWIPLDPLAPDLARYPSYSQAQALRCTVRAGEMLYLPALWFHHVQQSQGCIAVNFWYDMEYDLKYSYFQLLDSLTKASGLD
T5 sequence (Q7LBC6 whole entry): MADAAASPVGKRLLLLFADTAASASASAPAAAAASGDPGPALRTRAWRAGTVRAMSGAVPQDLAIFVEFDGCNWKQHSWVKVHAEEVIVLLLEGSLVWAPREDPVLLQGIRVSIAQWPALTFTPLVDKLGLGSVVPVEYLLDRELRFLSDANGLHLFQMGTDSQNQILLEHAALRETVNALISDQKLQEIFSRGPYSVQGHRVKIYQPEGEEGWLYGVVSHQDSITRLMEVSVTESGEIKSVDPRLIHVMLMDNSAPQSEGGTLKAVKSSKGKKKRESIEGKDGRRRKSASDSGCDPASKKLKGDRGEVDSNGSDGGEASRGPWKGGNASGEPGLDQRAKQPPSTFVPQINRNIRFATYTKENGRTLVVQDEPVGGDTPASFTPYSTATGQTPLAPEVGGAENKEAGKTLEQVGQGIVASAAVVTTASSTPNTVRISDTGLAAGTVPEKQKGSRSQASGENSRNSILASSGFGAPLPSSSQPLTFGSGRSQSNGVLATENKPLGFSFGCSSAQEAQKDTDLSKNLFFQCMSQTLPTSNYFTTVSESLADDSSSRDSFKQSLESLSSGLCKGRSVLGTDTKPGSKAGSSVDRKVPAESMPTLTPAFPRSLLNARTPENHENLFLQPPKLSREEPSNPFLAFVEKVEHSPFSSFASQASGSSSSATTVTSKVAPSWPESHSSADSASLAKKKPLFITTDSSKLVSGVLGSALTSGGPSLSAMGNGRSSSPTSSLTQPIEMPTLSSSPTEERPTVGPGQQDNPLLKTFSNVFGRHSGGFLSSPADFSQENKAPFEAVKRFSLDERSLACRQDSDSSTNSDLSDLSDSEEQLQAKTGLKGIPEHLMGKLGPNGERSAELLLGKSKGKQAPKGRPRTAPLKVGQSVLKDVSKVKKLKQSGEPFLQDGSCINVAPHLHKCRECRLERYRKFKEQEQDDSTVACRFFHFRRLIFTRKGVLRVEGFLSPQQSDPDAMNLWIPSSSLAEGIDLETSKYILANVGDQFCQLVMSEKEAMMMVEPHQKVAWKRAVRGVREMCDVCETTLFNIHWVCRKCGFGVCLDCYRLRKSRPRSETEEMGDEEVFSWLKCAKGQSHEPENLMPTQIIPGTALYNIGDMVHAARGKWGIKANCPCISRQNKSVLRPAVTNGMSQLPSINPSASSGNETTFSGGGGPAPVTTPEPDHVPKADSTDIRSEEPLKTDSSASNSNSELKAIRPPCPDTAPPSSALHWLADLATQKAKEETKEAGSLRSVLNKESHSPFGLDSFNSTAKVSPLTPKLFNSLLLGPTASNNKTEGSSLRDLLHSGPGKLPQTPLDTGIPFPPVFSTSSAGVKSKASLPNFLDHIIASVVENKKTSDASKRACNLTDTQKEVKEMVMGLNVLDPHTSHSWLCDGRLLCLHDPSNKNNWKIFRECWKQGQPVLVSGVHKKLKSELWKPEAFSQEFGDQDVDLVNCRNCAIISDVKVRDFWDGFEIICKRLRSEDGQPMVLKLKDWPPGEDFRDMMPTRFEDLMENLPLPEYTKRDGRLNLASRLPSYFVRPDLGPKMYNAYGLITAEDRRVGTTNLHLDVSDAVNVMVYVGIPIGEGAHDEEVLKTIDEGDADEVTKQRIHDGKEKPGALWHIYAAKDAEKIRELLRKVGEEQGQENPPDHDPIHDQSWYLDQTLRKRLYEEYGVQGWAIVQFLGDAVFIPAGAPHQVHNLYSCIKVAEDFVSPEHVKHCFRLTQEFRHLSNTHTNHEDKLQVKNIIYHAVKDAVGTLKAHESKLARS
T3 sequence (P29375 whole entry): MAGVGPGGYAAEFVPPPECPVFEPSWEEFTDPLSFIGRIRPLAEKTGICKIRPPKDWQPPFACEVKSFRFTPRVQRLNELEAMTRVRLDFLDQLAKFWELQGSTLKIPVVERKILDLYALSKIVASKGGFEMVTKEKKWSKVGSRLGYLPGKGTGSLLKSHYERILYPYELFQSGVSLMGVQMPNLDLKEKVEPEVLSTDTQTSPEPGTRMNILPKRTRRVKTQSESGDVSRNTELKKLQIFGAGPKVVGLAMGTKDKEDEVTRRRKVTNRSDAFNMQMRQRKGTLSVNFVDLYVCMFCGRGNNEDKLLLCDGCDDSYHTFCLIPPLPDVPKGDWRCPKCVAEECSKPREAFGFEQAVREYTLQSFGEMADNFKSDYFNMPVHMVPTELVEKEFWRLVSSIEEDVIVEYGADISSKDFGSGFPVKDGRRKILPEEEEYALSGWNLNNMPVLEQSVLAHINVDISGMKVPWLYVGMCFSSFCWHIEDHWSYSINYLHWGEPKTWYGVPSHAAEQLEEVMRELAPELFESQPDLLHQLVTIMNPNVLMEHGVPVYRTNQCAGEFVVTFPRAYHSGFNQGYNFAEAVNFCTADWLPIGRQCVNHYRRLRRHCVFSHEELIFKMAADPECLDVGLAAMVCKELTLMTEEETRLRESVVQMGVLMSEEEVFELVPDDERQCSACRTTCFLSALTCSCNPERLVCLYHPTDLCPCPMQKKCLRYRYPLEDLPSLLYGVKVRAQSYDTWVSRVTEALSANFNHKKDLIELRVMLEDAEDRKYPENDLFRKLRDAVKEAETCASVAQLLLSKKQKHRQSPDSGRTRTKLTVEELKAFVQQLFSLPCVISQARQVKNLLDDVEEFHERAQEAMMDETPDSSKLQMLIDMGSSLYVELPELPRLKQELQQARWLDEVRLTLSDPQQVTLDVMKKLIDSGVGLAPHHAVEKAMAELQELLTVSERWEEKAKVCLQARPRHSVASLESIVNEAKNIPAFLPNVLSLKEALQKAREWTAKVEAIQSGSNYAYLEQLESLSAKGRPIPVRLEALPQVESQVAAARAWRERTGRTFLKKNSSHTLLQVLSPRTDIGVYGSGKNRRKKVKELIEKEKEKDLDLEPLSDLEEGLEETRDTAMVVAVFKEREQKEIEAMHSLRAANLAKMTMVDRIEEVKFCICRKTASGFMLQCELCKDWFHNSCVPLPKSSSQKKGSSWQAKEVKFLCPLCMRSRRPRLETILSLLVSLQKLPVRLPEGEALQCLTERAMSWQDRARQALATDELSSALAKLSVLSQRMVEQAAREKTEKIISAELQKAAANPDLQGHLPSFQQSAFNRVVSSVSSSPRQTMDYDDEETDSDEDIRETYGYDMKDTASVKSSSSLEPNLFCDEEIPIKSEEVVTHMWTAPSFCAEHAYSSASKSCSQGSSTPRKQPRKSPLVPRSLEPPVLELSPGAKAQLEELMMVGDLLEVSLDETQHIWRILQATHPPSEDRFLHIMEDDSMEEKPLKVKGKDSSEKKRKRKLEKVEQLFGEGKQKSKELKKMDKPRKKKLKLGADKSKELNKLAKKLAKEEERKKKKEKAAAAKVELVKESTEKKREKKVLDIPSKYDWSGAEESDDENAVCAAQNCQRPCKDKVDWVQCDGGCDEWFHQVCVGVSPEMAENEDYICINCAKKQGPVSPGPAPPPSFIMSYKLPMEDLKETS

| Structure (SMILES) | IC50 [1] | further results |
| --- | --- | --- |
| CCOC(=O)c1cc(C)nc(-c2ccn(C)n2)c1 | > 100 µM |  |
| CCOC(=O)c1ccnc(-c2nn(C)cc2-c2cc3ccccc3c3ccccc23)c1 | > 100 µM |  |
| CCOC(=O)c1cc(-c2ccn(C)n2)ncc1C(F)(F)F | > 100 µM |  |
| Cn1ccc(-c2cc(C(N)=O)ccn2)n1 | > 100 µM |  |
| CCOC(=O)c1ccnc(-c2nn(C)cc2-c2ccc3occc3c2)c1 | > 100 µM |  |
| CCNC(=O)c1ccnc(-c2ccn(C)n2)c1 | > 100 µM |  |
| CCOC(=O)c1ccnc(-c2ccn(C(C)C)n2)c1 | > 100 µM |  |
| CCOC(=O)c1ccnc(-c2ccnn2C)c1 | > 100 µM |  |
| CCOC(=O)c1cccc(-c2ccn(C)n2)c1 | > 100 µM |  |
| Cc1cc(O)nc(NN=Cc2ccccc2O)n1 |  | IC50 [14]: 0.78 µM |
| Cn1ccc(-c2cc(C(=O)OC3CCCC3)ccn2)n1 | 43.5 µM |  |
| CCOC(=O)c1ccnc(-c2nn(C)cc2-c2ccc(OC)nc2)c1 | 24.9 µM |  |
| CCOC(=O)c1cccnc1-c1ccn(C)n1 | > 100 µM |  |
| CCOC(=O)c1ccnc(-c2nn(C)cc2-c2cc(OC)cc(OC)c2)c1 | > 100 µM |  |
| CCOC(=O)c1ccc(-c2ccn(C)n2)nc1 | > 100 µM |  |
| CCOC(=O)c1cc(-c2ccn(C)n2)ncc1F | 23.1 µM |  |

The remaining compounds from weak to strong by IC50 [1], led by results:

| IC50 [1] | Structure (SMILES) | further results |
| --- | --- | --- |
| 22.9 µM | CCOC(=O)c1ccnc(-c2nn(C)cc2-c2cccc(C)c2)c1 |  |
| 20.4 µM | CCOC(=O)c1ccnc(-c2nn(C)cc2-c2cccc(N3CCOCC3)c2)c1 |  |
| 19.9 µM | CCOC(=O)c1ccnc(-c2cc[nH]n2)c1 | inhibition [1]: Dose-Dependent Effect; inhibition [15]: 76% |
| 15.2 µM | CCOC(=O)c1ccnc(-c2nn(C)cc2-c2ccccc2)c1 |  |
| 12.9 µM | Cn1ccc(-c2cc(-c3cnn[nH]3)ccn2)n1 |  |
| 11.8 µM | CC(C)COC(=O)c1ccnc(-c2ccn(C)n2)c1 |  |
| 5.69 µM | Cn1ccc(-c2cc(C(=O)OCc3ccccc3)ccn2)n1 |  |
| 3.8 µM | Cn1ccc(-c2cc(C(=O)OCC3CC3)ccn2)n1 |  |
| 2.53 µM | Cn1ccc(-c2cc(C(=O)OCC3CCC3)ccn2)n1 |  |
| 2.43 µM | CCOC(=O)c1ccnc(-c2ccn(CC)n2)c1 |  |
| 1.94 µM | CC(C)OC(=O)c1ccnc(-c2ccn(C)n2)c1 |  |
| 1.86 µM | COC(=O)c1ccnc(-c2ccn(C)n2)c1 |  |
| 1.71 µM | Cn1ccc(-c2cc(C(=O)O)ccn2)n1 |  |
| 1.45 µM | Cn1ccc(-c2cc(C(=O)OCCF)ccn2)n1 |  |
| 1.34 µM | CCCOC(=O)c1ccnc(-c2ccn(C)n2)c1 |  |
| 1.12 µM | Cn1ccc(-c2cc(C(=O)OCC(F)F)ccn2)n1 |  |
| 0.914 µM | CCOC(=O)c1ccnc(-c2ccn(C)n2)c1 |  |
| 0.681 µM | Cn1ccc(-c2cc(C(=O)OCC(F)(F)F)ccn2)n1 | IC50 [2]: > 100 µM; IC50 [3]: > 100 µM; IC50 (RNA demethylase ALKBH5 [4]): > 100 µM; ΔTm [5]: 1.94 °C; Activity [6]: Active; Activity [7]: inactive; Activity [8]: inactive; Activity [9]: inactive; IC50 [10]: > 100 µM; Activity (RNA demethylase ALKBH5 [11]): inactive; IC50 [12]: > 100 µM; Activity [13]: inactive |
